# Experimental data: article PMC11739978, “Next-Generation Carbazole-Linked 1,2,4-Triazole-Thione Derivatives: Strategic Design, Synthesis, Molecular Docking, and Evaluation of Antidiabetic Potential” (ACS Omega, 2024)
# Values joined by “and” are separate entries in the source; they are usually repeats but may differ in a detail not shown here. Equal values may be shown once.
# Legend:
# [1] = tested on: STZ-induced diabetic mice; assay: In vivo hypoglycemic effect in mice with STZ-induced diabetes; conditions: group III STZ-diabetic mice, fasting
# Procedure: The Carbazole-triazole derivatives were tested in a laboratory setting to determine their ability to inhibit the enzyme α-amylase and α-glucosidase. […] Therefore, C5f was selected for further investigation of its ability to lower blood sugar levels in an in vivo study. This investigation sought to reveal the effect of C5f on blood glucose levels in mice with diabetes caused by Streptozotocin (STZ). This compound has a significant hypoglycemic effect in STZ-diabetic mice, similar to the effect reported in the control group (mice that were not treated), as shown in Figure 3. The mice were divided into three groups: group I: negative control mice without any treatment; Group II: positive control mice with STZ treatment only; and Group III: mice treated with STZ and then with our compound C5f.
# The investigations conducted on mice adhered strictly to the protocols established by the Association for Assessment and Accreditation of Laboratory Animal Care International. The Institutional Review Board of the Animal House and Use Committee at An-Najah National University granted full ethical approval for the study (approval number: Med. September. 2022/2A). […]
# The experiment entailed inducing diabetes intraperitoneally by administering streptozotocin (STZ) (i.p.). […] To determine the development of diabetes, the mice’s fasting blood glucose levels were evaluated 4 days following the injection of STZ. […]
# [2] = MTS cytotoxicity assay on LX-2 normal hepatic cells; conditions: human, LX-2 hepatic stellate cells
# [3] = tested on: LX-2 cells; assay: as above; conditions: LX-2, 100 μM
SMILES,"blood glucose level after five doses of C5f ([1]; 10 mg/kg i.p. daily for 5 days, 10 mg/kg)",blood glucose level before C5f treatment ([1]; baseline after STZ induction),"viability at 24 h, 100 µM [2] [%]",lower cytotoxic activity compared to the positive control 5-FU [3] [fold]
"COc1ccc(-n2c(Cn3c4ccccc4c4ccccc43)n[nH]c2=S)cc1 [C5f, 5-((9H-Carbazol-9-yl)methyl)-4-(4-methoxyphenyl)-2,4-dihydro-3H-1,2,4-triazole-3-thione]",216.15 mg/dL and 216.15 ± 3.45 mg/dL,290.54 mg/dL and 290.54 ± 2.15 mg/dL,63.6,
"S=c1[nH]nc(Cn2c3ccccc3c3ccccc32)n1CCc1ccccc1 [C5s, 5-((9H-Carbazol-9-yl)methyl)-4-phenethyl-2,4-dihydro-3H-1,2,4-triazole-3-thione]",,,37.8,3
"S=c1[nH]nc(Cn2c3ccccc3c3ccccc32)n1-c1ccc(Br)cc1 [C5g, 5-((9H-Carbazol-9-yl)methyl)-4-(4-bromophenyl)-2,4-dihydro-3H-1,2,4-triazole-3-thione]",,,65.3 to 85.3,
"O=c1[nH]cc(F)c(=O)[nH]1 [5-Fu, 5-Fluorouracil, reference compound]",,,13.4,
"S=c1[nH]nc(Cn2c3ccccc3c3ccccc32)n1C1CCCCC1 [C5m, 5-((9H-Carbazol-9-yl)methyl)-4-cyclohexyl-2,4-dihydro-3H-1,2,4-triazole-3-thione]",,,65.3 to 85.3,
"S=c1[nH]nc(Cn2c3ccccc3c3ccccc32)n1C1CC2CCC1C2 (stereo not drawn) [C5r, 5-((9H-Carbazol-9-yl)methyl)-4-(bicyclo[2.2.1]heptan-2-yl)-2,4-dihydro-3H-1,2,4-triazole-3-thione]",,,64.5,
"O=C(c1ccccc1)n1c(Cn2c3ccccc3c3ccccc32)n[nH]c1=S [C5o, (3-((9H-Carbazol-9-yl)methyl)-5-thioxo-1,5-dihydro-4H-1,2,4-triazol-4-yl)(phenyl)methanone]",,,36.5,3
"S=c1[nH]nc(Cn2c3ccccc3c3ccccc32)n1-c1ccc(Cl)cc1 [C5h, 5-((9H-Carbazol-9-yl)methyl)-4-(4-chlorophenyl)-2,4-dihydro-3H-1,2,4-triazole-3-thione]",,,65.3 to 85.3,
